Like-named read-outs stand apart in the source and are kept apart here.
Test system: VSV (ATCC VR-1238)
Format: cell-based, vesicular stomatitis virus

SMILES: Cc1cc2nc3c(=O)[nH]c(=O)nc-3n(C[C@H](O)[C@H](O)[C@H](O)CO)c2cc1C [riboflavin]
- MVEPI of VSV in plasma (intermediate-acting RUV: 311 nm, irradiation dose 6.49 J/mL): 4.04
- MVEPI of VSV in plasma (weak-acting (low-acting) RUV: 365 nm, irradiation dose 12.56 J/mL): 1.77

From patent US20240002899A1 (priority 2022, published 2024)
